Measurements taken from ChEMBL document CHEMBL1201862, “PubChem BioAssay data set” (2004).
The source made the active and inactive calls.

Columns and labels:
[1] = Luminescence Cell-Based Dose Confirmation HTS to Identify Activators of 5'UTR Stem-Loop Driven Alpha-Synuclein mRNA Translation in H4 Neuroglioblastoma Cells. [Related pubchem assays: 1829 (Project Summary), 1814 (Primary HTS)]; assay type: functional
[2] = Luminescence Cell-Based Dose Response HTS to Identify Activators of Luciferase Translation or Activity in H4 […] Cells. [Related pubchem assays: 1829 (Project Summary), 1814 (Primary HTS)]; assay type: functional
[3] = tested on: H4; test: Luminescence Cell-Based Dose Response HTS to Identify Activators of 5'UTR Stem-Loop Driven Prion Protein mRNA Translation in H4 Neuroglioblastoma Cells. [Related pubchem assays: 1829 (Project Summary), 1814 (Primary HTS)]; assay type: functional; details: Homo sapiens
[4] = inhibitors of intracellular T. cruzi replication, confirmation, NIH3T3 host cells, beta-gal luminescence (AID 2044); assay type: functional, cell-based;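 also: intracellular parasites grown in NIH/3T3 mouse fibroblasts as host cells; luminescent beta-galactosidase reporter signal from transgenic T. cruzi replicating inside host cells; inhibitors lower the luminescence signal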
[5] = cytotoxicity toward NIH3T3 fibroblasts, dose response, counter-screen, cell-based, ATP luminescence, mouse fibroblasts (AID 2010); assay type: functional;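 also: cells exposed to compound for about 90 hours before reading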
[6] = molecular target: T1, Microphthalmia-associated transcription factor (Homo sapiens, UniProt O75030); test: TRPM1 promoter luciferase signal decrease, dose response, MITF inhibitor project, cell-based, SK-MEL-5, cherry-picked, set 3 (AID 493073); assay type: functional
T1 sequence (O75030 whole entry): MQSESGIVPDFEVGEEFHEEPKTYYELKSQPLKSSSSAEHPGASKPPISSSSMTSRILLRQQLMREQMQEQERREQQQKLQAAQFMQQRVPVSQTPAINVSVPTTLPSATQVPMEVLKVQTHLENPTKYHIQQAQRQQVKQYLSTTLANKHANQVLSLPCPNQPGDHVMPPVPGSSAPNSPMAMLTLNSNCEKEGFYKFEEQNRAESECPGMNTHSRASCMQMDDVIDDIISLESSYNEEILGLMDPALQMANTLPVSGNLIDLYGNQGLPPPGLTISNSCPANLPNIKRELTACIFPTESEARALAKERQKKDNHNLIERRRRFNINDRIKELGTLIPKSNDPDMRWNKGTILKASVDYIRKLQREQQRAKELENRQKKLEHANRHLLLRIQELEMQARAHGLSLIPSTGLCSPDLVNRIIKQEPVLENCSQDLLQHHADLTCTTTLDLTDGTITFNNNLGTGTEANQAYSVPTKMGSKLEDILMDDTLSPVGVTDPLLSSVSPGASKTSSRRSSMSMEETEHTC

[7] = tested on: H9c2; test: cells; assay type: functional, cell-based; details: Rattus norvegicus, H9c2, Myocardium;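 also: confirmatory concentration-response retest of ultra-high-throughput screening hits for modulation of myocardial damage; cell death induced by hydrogen peroxide oxidative stress; compound pretreatment for 60 min then peroxide exposure for 2 h; potency is for protecting the cells against peroxide damage rather than for killing them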
[8] = molecular target: T2, Rac GTPase-activating protein 1 (Homo sapiens, UniProt Q9H0H5); test: MgcRacGAP GTPase-activating activity inhibitors, confirmation, biochemical, ADP Hunter fluorescence, primary and confirmatory (AID 624330); assay type: functional
T2 sequence (Q9H0H5 whole entry): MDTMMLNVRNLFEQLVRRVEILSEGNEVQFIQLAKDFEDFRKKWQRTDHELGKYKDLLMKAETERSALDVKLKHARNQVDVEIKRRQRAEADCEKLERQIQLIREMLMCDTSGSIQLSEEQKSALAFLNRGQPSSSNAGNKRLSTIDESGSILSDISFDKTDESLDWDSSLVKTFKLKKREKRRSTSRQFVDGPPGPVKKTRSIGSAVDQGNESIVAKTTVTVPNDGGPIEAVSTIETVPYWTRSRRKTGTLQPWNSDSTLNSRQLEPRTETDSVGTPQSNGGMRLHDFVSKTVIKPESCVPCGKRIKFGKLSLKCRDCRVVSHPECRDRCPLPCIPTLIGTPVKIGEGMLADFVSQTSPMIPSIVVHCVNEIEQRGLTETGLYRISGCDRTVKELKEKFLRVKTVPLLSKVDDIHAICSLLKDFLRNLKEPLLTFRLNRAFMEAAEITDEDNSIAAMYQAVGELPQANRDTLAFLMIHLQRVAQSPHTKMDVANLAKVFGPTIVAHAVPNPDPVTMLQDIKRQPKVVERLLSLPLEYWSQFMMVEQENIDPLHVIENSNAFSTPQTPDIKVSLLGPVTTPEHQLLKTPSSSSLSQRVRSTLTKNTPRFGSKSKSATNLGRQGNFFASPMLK

[9] = molecular target: T3, Histone-lysine N-methyltransferase NSD2 (Homo sapiens, UniProt O96028); assay type: biochemical
T3 sequence (O96028 whole entry): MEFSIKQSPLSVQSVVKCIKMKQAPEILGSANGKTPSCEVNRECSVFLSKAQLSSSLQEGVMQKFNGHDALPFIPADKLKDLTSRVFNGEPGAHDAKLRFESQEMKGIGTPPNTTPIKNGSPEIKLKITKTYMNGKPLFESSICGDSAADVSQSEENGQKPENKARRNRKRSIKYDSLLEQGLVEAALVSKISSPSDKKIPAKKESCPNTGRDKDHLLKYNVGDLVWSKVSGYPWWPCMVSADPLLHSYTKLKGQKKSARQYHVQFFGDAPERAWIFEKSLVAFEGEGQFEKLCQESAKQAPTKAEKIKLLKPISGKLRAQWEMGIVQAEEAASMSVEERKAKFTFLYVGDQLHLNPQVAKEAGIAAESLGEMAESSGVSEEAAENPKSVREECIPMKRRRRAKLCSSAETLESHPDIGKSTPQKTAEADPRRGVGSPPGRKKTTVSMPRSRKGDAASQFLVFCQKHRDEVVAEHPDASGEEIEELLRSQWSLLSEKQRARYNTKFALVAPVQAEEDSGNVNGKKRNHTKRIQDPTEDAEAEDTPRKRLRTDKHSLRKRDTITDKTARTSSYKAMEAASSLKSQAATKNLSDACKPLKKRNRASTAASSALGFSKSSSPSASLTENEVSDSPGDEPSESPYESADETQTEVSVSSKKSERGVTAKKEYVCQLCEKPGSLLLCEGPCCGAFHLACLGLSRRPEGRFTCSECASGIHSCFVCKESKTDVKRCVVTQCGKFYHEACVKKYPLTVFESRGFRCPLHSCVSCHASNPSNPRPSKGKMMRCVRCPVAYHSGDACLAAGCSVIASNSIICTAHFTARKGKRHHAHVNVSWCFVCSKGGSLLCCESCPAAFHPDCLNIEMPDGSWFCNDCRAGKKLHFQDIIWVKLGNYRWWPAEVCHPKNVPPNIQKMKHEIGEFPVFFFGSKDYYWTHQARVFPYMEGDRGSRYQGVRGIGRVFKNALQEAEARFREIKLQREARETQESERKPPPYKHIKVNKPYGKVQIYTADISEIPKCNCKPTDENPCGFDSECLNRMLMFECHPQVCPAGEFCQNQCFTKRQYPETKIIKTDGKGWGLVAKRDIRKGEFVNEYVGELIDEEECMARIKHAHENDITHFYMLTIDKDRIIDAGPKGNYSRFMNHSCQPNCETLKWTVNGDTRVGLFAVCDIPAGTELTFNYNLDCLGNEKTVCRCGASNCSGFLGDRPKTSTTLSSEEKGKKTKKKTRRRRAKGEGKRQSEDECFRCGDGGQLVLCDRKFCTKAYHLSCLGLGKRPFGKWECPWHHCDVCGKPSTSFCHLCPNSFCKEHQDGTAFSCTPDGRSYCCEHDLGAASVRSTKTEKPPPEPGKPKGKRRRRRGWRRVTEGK

[10] = molecular target: T4, Carboxy-terminal domain RNA polymerase II polypeptide A small phosphatase 1 (Homo sapiens, UniProt Q9GZU7); test: inhibitors of CTDSP1, concentration-response testing, biochemical assay, absorbance-based, actives from ultra-high-throughput screening (AID 540297); assay type: functional
T4 sequence (Q9GZU7 whole entry): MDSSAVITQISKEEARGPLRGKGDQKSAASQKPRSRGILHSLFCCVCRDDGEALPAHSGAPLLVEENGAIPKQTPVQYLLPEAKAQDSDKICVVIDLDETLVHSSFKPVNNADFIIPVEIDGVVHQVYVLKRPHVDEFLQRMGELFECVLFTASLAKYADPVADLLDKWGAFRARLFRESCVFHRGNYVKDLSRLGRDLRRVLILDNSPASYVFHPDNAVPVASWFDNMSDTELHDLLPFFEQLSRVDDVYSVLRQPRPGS

[11] = molecular target: Glyceraldehyde-3-phosphate dehydrogenase (Homo sapiens, UniProt P04406)
[12] = Luminescence Cell-Based Dose Retest to Confirm Inhibitors of Cancer Stem Cells. [Related pubchem assays (depositor defined):AID2717, AID2721]; assay type: functional; details: Homo sapiens
[13] = cytotoxicity in HEK-293T cells, dose response, cytotoxicity control for TCR NF-kB inhibitor project, luminescence, T-cell screen hits (AID 489026); assay type: functional, cell-based;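 also: cells exposed to compound about 14 hours before the viability readout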
[14] = Shn3 3'UTR reporter inhibitors, dose response, cell-based, Clone20 osteoblasts, firefly luciferase, cherry-picked (AID 624132); assay type: functional;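 also: firefly luciferase luminescence from reporter carrying the Shn3 3'UTR in osteoblasts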
[15] = HepG2 cell cytotoxicity, dose response, cytotoxicity control for Shn3 inhibitor project, CellTiter-Glo, cherry-picked (AID 624134); assay type: functional, cell-based
[16] = control 3'UTR Renilla luciferase suppression, dose response, counter-screen for Shn3 inhibitor project, cell-based, Clone20-Shn3RL, cherry-picked (AID 624133); assay type: functional
[17] = molecular target: Cytochrome P450 2C9 (Homo sapiens, UniProt P11712)
[18] = Vero E6 cell cytotoxicity, dose response, cytotoxicity control for non-replicating M. tuberculosis project, secondary assay (AID 492998); assay type: functional, VeroE6; details: Vero C1008
[19] = cells; assay type: functional
[20] = P. falciparum Dd2 growth inhibitors, dose response, SYBR Green, cherry-picked samples (AID 1159567); assay type: functional, cell-based

Glyceraldehyde-3-phosphate dehydrogenase, sequence (P04406 whole entry): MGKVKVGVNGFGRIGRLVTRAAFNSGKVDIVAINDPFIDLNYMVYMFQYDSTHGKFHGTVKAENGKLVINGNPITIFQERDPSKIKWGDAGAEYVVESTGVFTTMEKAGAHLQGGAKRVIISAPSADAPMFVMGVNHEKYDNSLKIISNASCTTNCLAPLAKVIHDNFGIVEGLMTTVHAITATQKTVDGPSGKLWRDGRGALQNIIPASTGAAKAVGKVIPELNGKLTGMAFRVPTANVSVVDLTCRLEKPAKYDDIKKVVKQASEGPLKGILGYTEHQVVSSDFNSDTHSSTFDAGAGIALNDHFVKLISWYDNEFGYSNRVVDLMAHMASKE
Cytochrome P450 2C9, sequence (P11712 whole entry): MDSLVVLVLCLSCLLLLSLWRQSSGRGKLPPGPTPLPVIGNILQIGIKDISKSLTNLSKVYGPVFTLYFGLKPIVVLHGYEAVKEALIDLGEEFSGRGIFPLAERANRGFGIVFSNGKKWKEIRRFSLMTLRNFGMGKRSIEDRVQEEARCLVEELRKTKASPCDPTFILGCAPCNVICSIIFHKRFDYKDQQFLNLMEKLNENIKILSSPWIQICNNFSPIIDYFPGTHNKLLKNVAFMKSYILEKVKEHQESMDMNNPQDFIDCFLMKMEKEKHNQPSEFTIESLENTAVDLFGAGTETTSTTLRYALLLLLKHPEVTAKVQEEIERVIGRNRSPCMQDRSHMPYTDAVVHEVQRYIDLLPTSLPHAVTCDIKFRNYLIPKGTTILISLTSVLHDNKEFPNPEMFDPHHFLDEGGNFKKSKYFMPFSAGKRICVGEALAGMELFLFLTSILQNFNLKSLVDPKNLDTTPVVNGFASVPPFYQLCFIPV

Compound: O=C(CSc1ccc(-c2ccccc2)nn1)Nc1ccc2c(c1)OCCO2
- EC50 [1]: 7.15 µM (active)
- EC50 [2]: 13.1 µM (active)
- EC50 [3]: > 120 µM (not active)

Compound: O=C(Nc1ccc(N2CCN(C(=O)c3ccc(Cl)cc3)CC2)cc1)c1ccc([N+](=O)[O-])o1
- EC50 [4]: 1.81 µM (active)
- EC50 [5]: 32.8 µM (active)
- AC50 [6]: 7.32 µM (active)

Compound: O=C(CCc1nc(O)c2ccccc2n1)N1CCN(S(=O)(=O)c2cccc([N+](=O)[O-])c2)CC1
- IC50 [7]: > 79 µM (inactive)

Compound: Cc1ccc(N2C(=O)c3[nH]nc(C)c3C2c2ccco2)cc1 (stereo unspecified)
- EC50 [1]: > 120 µM (not active)
- EC50 [2]: 48.5 µM (active)
- EC50 [3]: 17.9 µM (inconclusive)

Compound: O=[N+]([O-])c1ccccc1Nc1ccc(O)cc1
- IC50 [8]: 22.6 µM (active)
- AC50 [9]: > 20 µM (inactive)

Compound: C=CCNC(=O)c1ccc(OC2CCN(S(=O)(=O)N(C)C)CC2)cc1
- EC50 [1]: 16.9 µM (active)
- EC50 [2]: 15.2 µM (active)
- EC50 [3]: 25.6 µM (active)

Compound: CCOC(=O)c1ccc2c(c1)[n+](CC)c(/C=C/N(C)c1ccccc1)n2CC
- AC50 [6]: 3.24 µM (active)
- IC50 [10]: 4.04 µM (active)

Compound: COc1cccc(CC(CC(=O)O)C(=O)O)c1 (stereo unspecified)
- IC50 [11]: > 100 µM (not active)

Compound: Cc1cc(C)c(C)c(S(=O)(=O)N2CCN(C(=O)CCc3nc(O)c4ccccc4n3)CC2)c1C
- IC50 [7]: > 79 µM (inactive)

Compound: Cc1cc2c(cc1C)C(c1ccccc1OC(C)C)CC(=O)N2 (stereo unspecified)
- AC50 [12]: 0.796 µM (active)
- IC50 [13]: 62.2 µM (inactive)

Compound: CC(C)N1C(=O)CC(Nc2ccc(N3CCOCC3)cc2)C1=O (stereo unspecified)
- EC50 [1]: > 120 µM (not active)
- EC50 [2]: 29.1 µM (active)
- EC50 [3]: > 120 µM (not active)

Compound: CC(=O)Nc1nnc(SCc2cccc3ccccc23)[nH]1
- IC50 [11]: > 100 µM (not active)

Compound: C[C+](C)[N-]Oc1cc(NC(=O)CCl)cc([N+](=O)[O-])c1
- AC50 [6]: 6.18 µM (active)

Compound: CCOC(=O)N1CCC(NC(=O)C2CCCN(Cc3nc(-c4cccc(C)c4)oc3C)C2)CC1 (stereo unspecified)
- AC50 [6]: 34.9 µM (active)
- AC50 [14]: 3.06 µM (active)
- AC50 [15]: 55.6 µM (active)
- AC50 [16]: 7.52 µM (active)

Compound: COc1ccc(C)c(Cn2c(-c3nonc3N)nc3ccccc32)c1
- IC50 [13]: > 80 µM (inactive)

Compound: Cn1c(-c2ccc3c(c2)OCO3)cnc1NCc1ccccc1
- EC50 [1]: 14.6 µM (active)
- EC50 [2]: 6.69 µM (active)
- EC50 [3]: 39.9 µM (active)
- AC50 [17]: 31.6 µM (inconclusive)

Compound: O=C(NCc1cccs1)C1CCN(c2ccc(S(=O)(=O)N3CCOCC3)cc2Cl)CC1
- IC50 [13]: > 80 µM (inactive)

Compound: COc1cc(/C=C2/SC(=S)NC2=O)cc(Cl)c1OCc1ccc(Cl)cc1Cl
- IC50 [11]: > 100 µM (not active)

Compound: Cc1cc(C)n2[nH]c(=O)c(N=Nc3cccc(Cl)c3)c2n1
- CC50 [18]: > 20 µM (active)
- IC50 [19]: 17.7 µM (active)

Compound: Cc1cccc2cc(/C=C3\N=C(c4ccccc4)OC3=O)c(N(C)C)nc12
- IC50 [11]: > 100 µM (not active)

Compound: c1ccc(-c2nn3c(-c4ccco4)nnc3s2)nc1
- IC50 [7]: 12.8 µM (active)

Compound: CCOc1ccccc1NC(=O)c1oc2ccccc2c1NC(=O)C1CCCO1 (stereo unspecified)
- IC50 [7]: > 79 µM (inactive)

Compound: Cn1c(=O)c2nc(NN=Cc3ccc(Br)cc3)[nH]c2n(C)c1=O
- IC50 [7]: > 79 µM (inactive)

Compound: N#Cc1ccc(-c2ccc3c(c2)[C@@H]2[C@@H](CCN2C(=O)C2CCC2)[C@@H](CO)N3)cc1
- AC50 [20]: 9.93 µM (active)

Compound: Cc1ccc(S(=O)(=O)N(C)C[C@H]2Oc3ccc(NC(=O)c4ccncc4)cc3C(=O)N([C@@H](C)CO)C[C@@H]2C)cc1
- AC50 [20]: 8.41 µM (active)

Compound: COc1cc(C)c(Cl)cc1S(=O)(=O)Nc1cccnc1
- IC50 [11]: > 10 µM (inconclusive)
